From PMC2248166, “Quantitative peptide binding motifs for 19 human and mouse MHC class I molecules derived using positional scanning combinatorial peptide libraries” (Immunome Research, 2008)
Where a SMILES comes first, the peptide text is derived from it.

Biological target: HLA B*1501 (Homo sapiens, UniProt P01889, A329T/A93T/A95T/C349S/D201E/D98Y/E187L/E204Q/E69M/E70A/K202T/N87E/Q94N/R155S/R180W/S121R/S35A/S48A/V306I/V36M/Y140S/Y91S)
Assay: biochemical
Assay type: binding

| Structure (SMILES) | IC50 [nM] |
| --- | --- |
| CC[C@H](C)[C@H](NC(=O)[C@H](CCSC)NC(=O)[C@H](C)N)C(=O)N[C@@H](CCC(=O)O)C(=O)N[C@@H](CC(C)C)C(=O)N[C@@H](CS)C(=O)NCC(=O)N[C@@H](C)C(=O)N[C@@H](Cc1ccccc1)C(=O)O [3102.1013] (H-AMIELCGAF-OH) | 0.34 |
| CC(C)C[C@H](NC(=O)[C@H](Cc1ccccc1)NC(=O)[C@H](C)NC(=O)CNC(=O)[C@H](CS)NC(=O)[C@H](CC(C)C)NC(=O)[C@@H](N)CCC(=O)O)C(=O)N[C@@H](Cc1ccccc1)C(=O)N[C@@H](Cc1ccc(O)cc1)C(=O)O [3102.1015] (H-ELCGAFLFY-OH) | 7.5 |
| CC[C@H](C)[C@H](NC(=O)[C@H](CC(C)C)NC(=O)[C@@H](N)CO)C(=O)N[C@@H](Cc1ccc(O)cc1)C(=O)N[C@@H](CC(C)C)C(=O)N[C@@H](CS)C(=O)N[C@H](C(=O)N[C@@H](Cc1ccccc1)C(=O)N[C@@H](CCSC)C(=O)O)[C@@H](C)O [3102.1017] (H-SLIYLCTFM-OH) | 4.5 |
| CC[C@H](C)[C@H](N)C(=O)N[C@H](C(=O)N[C@@H](CO)C(=O)N[C@@H](CO)C(=O)N[C@@H](CO)C(=O)N[C@H](C(=O)N[C@@H](CC(C)C)C(=O)N[C@@H](Cc1ccc(O)cc1)C(=O)N[C@@H](Cc1ccccc1)C(=O)O)[C@@H](C)O)[C@@H](C)CC [3102.1018] (H-IISSSTLYF-OH) | 1.1 |
| CC(C)C[C@H](NC(=O)[C@H](CCCCN)NC(=O)[C@H](CCCCN)NC(=O)[C@H](CC(C)C)NC(=O)[C@@H](N)CC(C)C)C(=O)N[C@@H](CC(N)=O)C(=O)N[C@@H](CO)C(=O)N[C@@H](Cc1ccccc1)C(=O)NCC(=O)O [3102.1020] (H-LLKKLNSFG-OH) | 45 |
| CC(C)C[C@H](NC(=O)[C@@H](N)CC(C)C)C(=O)N[C@@H](Cc1c[nH]cn1)C(=O)N[C@@H](CS)C(=O)N[C@H](C(=O)N[C@H](C(=O)N[C@@H](CCC(=O)O)C(=O)N[C@@H](CO)C(=O)N[C@@H](Cc1ccc(O)cc1)C(=O)O)[C@@H](C)O)C(C)C [3102.1022] (H-LLHCVTESY-OH) | 1 |
| CC[C@H](C)[C@H](NC(=O)[C@H](CCC(=O)O)NC(=O)[C@H](Cc1ccccc1)NC(=O)[C@H](Cc1ccccc1)NC(=O)[C@@H](NC(=O)[C@@H](N)Cc1ccc(O)cc1)C(C)C)C(=O)N[C@H](C(=O)N[C@@H](Cc1c[nH]cn1)C(=O)N[C@@H](Cc1ccccc1)C(=O)O)[C@@H](C)CC [3102.1024] (H-YVFFEIIHF-OH) | 0.69 |
| CSCC[C@H](NC(=O)[C@H](Cc1c[nH]cn1)NC(=O)[C@H](CCCCN)NC(=O)[C@H](CC(N)=O)NC(=O)[C@@H](NC(=O)[C@H](CC(N)=O)NC(=O)[C@H](CO)NC(=O)[C@H](CCC(N)=O)NC(=O)[C@@H](N)CCCCN)[C@@H](C)O)C(=O)O [3102.1026] (H-KQSNTNKHM-OH) | 28 |
| CSCC[C@H](NC(=O)[C@H](Cc1c[nH]cn1)NC(=O)[C@H](CCCCN)NC(=O)[C@H](CC(N)=O)NC(=O)[C@@H](NC(=O)[C@@H](N)CC(N)=O)[C@@H](C)O)C(=O)N[C@@H](CC(C)C)C(=O)N[C@@H](CCC(=O)O)C(=O)N[C@@H](Cc1ccccc1)C(=O)O [3102.1027] (H-NTNKHMLEF-OH) | 12 |
| CC(C)C[C@H](NC(=O)[C@H](C)NC(=O)[C@@H](NC(=O)[C@H](Cc1ccccc1)NC(=O)[C@H](CS)NC(=O)[C@H](Cc1ccccc1)NC(=O)[C@H](Cc1ccc(O)cc1)NC(=O)[C@@H](NC(=O)[C@@H](N)CC(C)C)[C@@H](C)O)C(C)C)C(=O)O [3102.1028] (H-LTYFCFVAL-OH) | 29 |
| CC[C@H](C)[C@H](NC(=O)[C@H](CO)NC(=O)[C@H](CC(C)C)NC(=O)[C@H](CC(C)C)NC(=O)[C@@H](N)CC(C)C)C(=O)N[C@@H](CC(N)=O)C(=O)N[C@@H](CO)C(=O)N[C@@H](CO)C(=O)N[C@@H](Cc1ccccc1)C(=O)O [3102.1035] (H-LLLSINSSF-OH) | 0.88 |
| CC[C@H](C)[C@H](NC(=O)[C@@H](N)CCSC)C(=O)N[C@@H](CCCCN)C(=O)N[C@@H](CC(N)=O)C(=O)N[C@@H](CC(C)C)C(=O)N[C@H](C(=O)N[C@@H](CCC(N)=O)C(=O)N[C@@H](CC(C)C)C(=O)N[C@@H](Cc1ccccc1)C(=O)O)[C@@H](C)O [3102.1037] (H-MIKNLTQLF-OH) | 5.7 |
| CSCC[C@H](NC(=O)[C@H](C)NC(=O)[C@@H]1CCCN1C(=O)[C@@H](NC(=O)[C@H](Cc1ccc(O)cc1)NC(=O)[C@H](C)NC(=O)[C@H](CCCCN)NC(=O)[C@H](CCC(N)=O)NC(=O)[C@@H](N)CCC(=O)O)C(C)C)C(=O)O [3102.1038] (H-EQKAYVPAM-OH) | 0.77 |
| CC[C@H](C)[C@H](NC(=O)[C@H](CC(N)=O)NC(=O)[C@H](CC(N)=O)NC(=O)[C@@H](NC(=O)[C@@H](N)CO)[C@@H](C)CC)C(=O)N[C@@H](CC(=O)O)C(=O)N1CCC[C@H]1C(=O)N[C@@H](Cc1c[nH]cn1)C(=O)N[C@@H](Cc1ccccc1)C(=O)O [3102.1039] (H-SINNIDPHF-OH) | 12 |
| CC[C@H](C)[C@H](NC(=O)[C@H](Cc1ccc(O)cc1)NC(=O)[C@@H](NC(=O)[C@H](CC(N)=O)NC(=O)[C@H](CCC(=O)O)NC(=O)[C@@H](N)CCSC)C(C)C)C(=O)N[C@@H](CO)C(=O)N[C@@H](CO)C(=O)N[C@@H](Cc1ccc(O)cc1)C(=O)O [3102.1042] (H-MENVYISSY-OH) | 2 |
| CC[C@H](C)[C@H](NC(=O)[C@H](CC(N)=O)NC(=O)[C@H](C)NC(=O)[C@@H](NC(=O)[C@@H](N)CC(C)C)[C@@H](C)CC)C(=O)N[C@@H](Cc1c[nH]cn1)C(=O)N[C@@H](CC(N)=O)C(=O)N[C@@H](Cc1c[nH]cn1)C(=O)N[C@@H](CCSC)C(=O)O [3102.1046] (H-LIANIHNHM-OH) | 0.67 |
| CSCC[C@H](NC(=O)[C@H](CCC(N)=O)NC(=O)[C@H](CCC(N)=O)NC(=O)[C@@H](NC(=O)[C@H](CCC(=O)O)NC(=O)[C@@H]1CCCN1C(=O)[C@H](CO)NC(=O)[C@H](CO)NC(=O)[C@@H](N)CCCCN)[C@@H](C)O)C(=O)O [3102.1065] (H-KSSPETQQM-OH) | 30 |
| CC[C@H](C)[C@H](NC(=O)[C@H](CO)NC(=O)[C@H](CC(C)C)NC(=O)CNC(=O)[C@H](CCC(=O)O)NC(=O)[C@H](CO)NC(=O)[C@H](Cc1ccc(O)cc1)NC(=O)[C@H](CC(C)C)NC(=O)[C@@H](N)CCCNC(=N)N)C(=O)O [3102.1232] (H-RLYSEGLSI-OH) | 4.5 |
| CC(C)C[C@H](NC(=O)[C@H](CCC(=O)O)NC(=O)[C@@H]1CCCN1C(=O)[C@@H](NC(=O)[C@H](Cc1ccc(O)cc1)NC(=O)[C@@H](NC(=O)[C@@H](N)Cc1ccccc1)C(C)C)C(C)C)C(=O)N[C@@H](CO)C(=O)N[C@@H](Cc1ccccc1)C(=O)O [3102.1280] (H-FVYVPELSF-OH) | 0.96 |
| CSCC[C@H](N)C(=O)N[C@@H](CO)C(=O)N[C@@H](CO)C(=O)N[C@@H](CO)C(=O)N[C@@H](CCC(N)=O)C(=O)N[C@@H](CC(=O)O)C(=O)N[C@@H](CC(C)C)C(=O)N[C@@H](CO)C(=O)N[C@@H](Cc1ccccc1)C(=O)O [3102.1286] (H-MSSSQDLSF-OH) | 16 |
| CC[C@H](C)[C@H](NC(=O)[C@@H](N)Cc1ccccc1)C(=O)N[C@@H](CC(N)=O)C(=O)N[C@@H](CCSC)C(=O)N[C@H](C(=O)NCC(=O)N[C@@H](CC(N)=O)C(=O)N[C@@H](Cc1c[nH]cn1)C(=O)N[C@@H](Cc1ccccc1)C(=O)O)[C@@H](C)O [3102.1288] (H-FINMTGNHF-OH) | 16 |
